Reference: ChEMBL document CHEMBL4507260 (2021)

Assays:
Settings in all cases: Compound concentration 1000.0 nM
[1] = test system: Tyrosine-protein kinase ABL1 (Homo sapiens), P00519 [E255K]
[2] = biological target: Tyrosine-protein kinase ABL1 (Homo sapiens) (UniProt P00519)
[3] = biological target: Serine/threonine-protein kinase 32C (Homo sapiens) (UniProt Q86UX6)
[4] = biological target: Bone morphogenetic protein receptor type-1A (Homo sapiens) (UniProt P36894)
[5] = test system: Phosphatidylinositol 4,5-bisphosphate 3-kinase catalytic subunit alpha isoform (Homo sapiens), P42336 [E542K]
[6] = biological target: Epithelial discoidin domain-containing receptor 1 (Homo sapiens) (UniProt Q08345)
[7] = biological target: Tyrosine-protein kinase Srms (Homo sapiens) (UniProt Q9H3Y6)
[8] = biological target: Ribosomal protein S6 kinase alpha-6 (Homo sapiens) (UniProt Q9UK32)
Chain of Ribosomal protein S6 kinase alpha-6 (Homo sapiens) (Q9UK32 whole entry): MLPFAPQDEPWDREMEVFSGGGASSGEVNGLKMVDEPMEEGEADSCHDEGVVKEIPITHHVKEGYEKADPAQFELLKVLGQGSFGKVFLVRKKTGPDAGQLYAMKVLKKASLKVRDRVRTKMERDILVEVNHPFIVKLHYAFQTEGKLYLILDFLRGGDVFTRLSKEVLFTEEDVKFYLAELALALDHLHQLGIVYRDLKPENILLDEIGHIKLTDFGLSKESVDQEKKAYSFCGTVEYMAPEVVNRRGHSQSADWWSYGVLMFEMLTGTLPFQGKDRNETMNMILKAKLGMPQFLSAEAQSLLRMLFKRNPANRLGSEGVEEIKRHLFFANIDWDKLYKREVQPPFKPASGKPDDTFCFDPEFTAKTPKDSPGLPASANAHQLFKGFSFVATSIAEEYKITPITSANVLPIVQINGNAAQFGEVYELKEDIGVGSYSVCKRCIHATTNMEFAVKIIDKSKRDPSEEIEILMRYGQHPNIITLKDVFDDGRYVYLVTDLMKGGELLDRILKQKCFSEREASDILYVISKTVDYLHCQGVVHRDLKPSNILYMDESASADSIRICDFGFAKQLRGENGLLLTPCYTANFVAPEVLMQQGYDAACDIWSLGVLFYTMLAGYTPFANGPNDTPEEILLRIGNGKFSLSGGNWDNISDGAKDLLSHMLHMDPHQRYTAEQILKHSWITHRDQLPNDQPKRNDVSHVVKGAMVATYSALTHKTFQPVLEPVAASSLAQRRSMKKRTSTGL

[9] = biological target: Serine/threonine-protein kinase MRCK alpha (Homo sapiens) (UniProt Q5VT25)
[10] = biological target: Mitogen-activated protein kinase kinase kinase 10 (Homo sapiens) (UniProt Q02779)
[11] = biological target: Serine/threonine-protein kinase 36 (Homo sapiens) (UniProt Q9NRP7)
[12] = biological target: Myosin light chain kinase, smooth muscle (Homo sapiens) (UniProt Q15746)
[13] = test system: Phosphatidylinositol 4,5-bisphosphate 3-kinase catalytic subunit alpha isoform (Homo sapiens), P42336 [E545A]
[14] = biological target: Dual specificity protein kinase CLK2 (Homo sapiens) (UniProt P49760)
[15] = biological target: Tyrosine-protein kinase ZAP-70 (Homo sapiens) (UniProt P43403)
[16] = biological target: Wee1-like protein kinase (Homo sapiens) (UniProt P30291)
[17] = test system: Receptor-type tyrosine-protein kinase FLT3 (Homo sapiens), P36888 [UNDEFINED MUTATION]
[18] = biological target: Tyrosine-protein kinase JAK2 (Homo sapiens) (UniProt O60674)
[19] = biological target: Tyrosine-protein kinase Lyn (Homo sapiens) (UniProt P07948)
[20] = biological target: Dual specificity tyrosine-phosphorylation-regulated kinase 2 (Homo sapiens) (UniProt Q92630)
[21] = biological target: Casein kinase I isoform gamma-3 (Homo sapiens) (UniProt Q9Y6M4)
[22] = biological target: Serine/threonine-protein kinase PAK 2 (Homo sapiens) (UniProt Q13177)
[23] = biological target: Ephrin type-A receptor 1 (Homo sapiens) (UniProt P21709)
Chain of Ephrin type-A receptor 1 (Homo sapiens) (P21709 whole entry): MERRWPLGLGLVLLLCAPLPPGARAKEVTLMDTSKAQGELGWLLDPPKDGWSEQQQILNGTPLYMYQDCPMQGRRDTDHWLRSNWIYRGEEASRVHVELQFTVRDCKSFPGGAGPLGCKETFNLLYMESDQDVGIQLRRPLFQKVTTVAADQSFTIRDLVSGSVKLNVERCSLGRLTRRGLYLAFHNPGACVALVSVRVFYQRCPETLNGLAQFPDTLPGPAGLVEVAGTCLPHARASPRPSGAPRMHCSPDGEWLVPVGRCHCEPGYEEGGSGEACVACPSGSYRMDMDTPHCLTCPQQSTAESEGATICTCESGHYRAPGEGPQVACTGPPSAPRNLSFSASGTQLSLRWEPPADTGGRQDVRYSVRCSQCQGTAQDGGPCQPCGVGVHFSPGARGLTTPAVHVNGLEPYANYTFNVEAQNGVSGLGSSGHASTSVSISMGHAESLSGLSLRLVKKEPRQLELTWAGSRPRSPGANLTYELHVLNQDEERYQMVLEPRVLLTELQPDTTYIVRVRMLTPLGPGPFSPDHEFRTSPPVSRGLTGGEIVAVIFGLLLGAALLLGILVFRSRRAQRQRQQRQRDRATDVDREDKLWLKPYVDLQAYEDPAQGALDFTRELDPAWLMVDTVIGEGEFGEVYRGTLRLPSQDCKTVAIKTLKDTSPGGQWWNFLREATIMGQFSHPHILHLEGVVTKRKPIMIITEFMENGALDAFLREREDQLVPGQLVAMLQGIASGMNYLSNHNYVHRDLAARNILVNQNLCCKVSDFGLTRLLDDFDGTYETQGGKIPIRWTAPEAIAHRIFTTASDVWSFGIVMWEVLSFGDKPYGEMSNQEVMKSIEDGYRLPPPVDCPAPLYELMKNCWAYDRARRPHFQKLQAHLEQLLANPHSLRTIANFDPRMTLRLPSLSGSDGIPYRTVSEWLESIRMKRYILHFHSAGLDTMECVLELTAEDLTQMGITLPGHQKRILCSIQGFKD

[24] = biological target: Serine/threonine-protein kinase 17B (Homo sapiens) (UniProt O94768)
[25] = biological target: Death-associated protein kinase 1 (Homo sapiens) (UniProt P53355)
Chain of Death-associated protein kinase 1 (Homo sapiens) (P53355 whole entry, looked up): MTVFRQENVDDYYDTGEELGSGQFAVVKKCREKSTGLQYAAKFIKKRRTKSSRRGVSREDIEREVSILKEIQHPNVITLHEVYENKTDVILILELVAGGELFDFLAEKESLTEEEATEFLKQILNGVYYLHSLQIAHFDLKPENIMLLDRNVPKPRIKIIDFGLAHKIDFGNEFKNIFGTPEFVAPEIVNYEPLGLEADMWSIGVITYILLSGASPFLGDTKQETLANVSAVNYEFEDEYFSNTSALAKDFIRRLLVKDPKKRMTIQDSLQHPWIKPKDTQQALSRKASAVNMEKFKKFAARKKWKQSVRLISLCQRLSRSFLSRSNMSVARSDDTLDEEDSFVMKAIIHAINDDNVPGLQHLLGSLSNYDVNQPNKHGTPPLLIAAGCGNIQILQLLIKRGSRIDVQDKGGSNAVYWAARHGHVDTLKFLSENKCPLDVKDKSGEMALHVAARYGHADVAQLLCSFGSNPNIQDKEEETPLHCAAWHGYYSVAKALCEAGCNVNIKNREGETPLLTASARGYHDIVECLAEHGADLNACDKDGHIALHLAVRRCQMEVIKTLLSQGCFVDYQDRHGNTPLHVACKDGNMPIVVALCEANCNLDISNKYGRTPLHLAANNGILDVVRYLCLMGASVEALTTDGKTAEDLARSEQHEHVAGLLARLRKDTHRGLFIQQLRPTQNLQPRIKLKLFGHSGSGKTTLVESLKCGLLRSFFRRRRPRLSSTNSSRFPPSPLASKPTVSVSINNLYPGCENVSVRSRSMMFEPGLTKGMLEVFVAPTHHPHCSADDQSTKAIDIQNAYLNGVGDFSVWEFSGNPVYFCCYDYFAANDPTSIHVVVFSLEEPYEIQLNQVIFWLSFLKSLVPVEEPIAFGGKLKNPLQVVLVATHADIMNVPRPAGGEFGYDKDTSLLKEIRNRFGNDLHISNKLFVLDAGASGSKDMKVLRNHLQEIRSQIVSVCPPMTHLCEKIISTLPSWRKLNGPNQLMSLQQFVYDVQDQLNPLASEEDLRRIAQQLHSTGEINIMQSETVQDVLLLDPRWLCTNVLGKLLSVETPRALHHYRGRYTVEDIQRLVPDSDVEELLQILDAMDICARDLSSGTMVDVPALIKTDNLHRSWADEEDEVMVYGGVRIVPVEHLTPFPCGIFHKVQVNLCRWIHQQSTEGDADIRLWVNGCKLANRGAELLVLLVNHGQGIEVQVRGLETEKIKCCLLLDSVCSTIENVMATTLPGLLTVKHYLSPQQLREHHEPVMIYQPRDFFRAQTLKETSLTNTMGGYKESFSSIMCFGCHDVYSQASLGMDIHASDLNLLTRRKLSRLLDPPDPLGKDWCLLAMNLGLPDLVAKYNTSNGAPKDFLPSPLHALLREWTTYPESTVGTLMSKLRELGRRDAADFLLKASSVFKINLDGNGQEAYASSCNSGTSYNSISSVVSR

[26] = biological target: Serine/threonine-protein kinase 32A (Homo sapiens) (UniProt Q8WU08)
[27] = biological target: Serine/threonine-protein kinase B-raf (Homo sapiens) (UniProt P15056)
[28] = biological target: Homeodomain-interacting protein kinase 1 (Homo sapiens) (UniProt Q86Z02)
[29] = biological target: RAC-beta serine/threonine-protein kinase (Homo sapiens) (UniProt P31751)
[30] = biological target: 1-phosphatidylinositol 3-phosphate 5-kinase (Homo sapiens) (UniProt Q9Y2I7)
[31] = biological target: Serine/threonine-protein kinase 35 (Homo sapiens) (UniProt Q8TDR2)
[32] = biological target: Ephrin type-A receptor 5 (Homo sapiens) (UniProt P54756)
[33] = biological target: Megakaryocyte-associated tyrosine-protein kinase (Homo sapiens) (UniProt P42679)
[34] = biological target: Mitogen-activated protein kinase kinase kinase kinase 4 (Homo sapiens) (UniProt O95819)
[35] = biological target: BDNF/NT-3 growth factors receptor (Homo sapiens) (UniProt Q16620)
[36] = test system: eIF-2-alpha kinase GCN2 (Homo sapiens), Q9P2K8 [S808G]
[37] = biological target: Ephrin type-B receptor 4 (Homo sapiens) (UniProt P54760)
[38] = biological target: Myosin light chain kinase (Homo sapiens) (UniProt Q32MK0)
[39] = biological target: Mitogen-activated protein kinase kinase kinase 4 (Homo sapiens) (UniProt Q9Y6R4)
[40] = biological target: Rhodopsin kinase GRK1 (Homo sapiens) (UniProt Q15835)
[41] = biological target: Casein kinase I isoform delta (Homo sapiens) (UniProt P48730)
[42] = biological target: Serine/threonine-protein kinase 33 (Homo sapiens) (UniProt Q9BYT3)
Chain of Serine/threonine-protein kinase 33 (Homo sapiens) (Q9BYT3 whole entry, looked up): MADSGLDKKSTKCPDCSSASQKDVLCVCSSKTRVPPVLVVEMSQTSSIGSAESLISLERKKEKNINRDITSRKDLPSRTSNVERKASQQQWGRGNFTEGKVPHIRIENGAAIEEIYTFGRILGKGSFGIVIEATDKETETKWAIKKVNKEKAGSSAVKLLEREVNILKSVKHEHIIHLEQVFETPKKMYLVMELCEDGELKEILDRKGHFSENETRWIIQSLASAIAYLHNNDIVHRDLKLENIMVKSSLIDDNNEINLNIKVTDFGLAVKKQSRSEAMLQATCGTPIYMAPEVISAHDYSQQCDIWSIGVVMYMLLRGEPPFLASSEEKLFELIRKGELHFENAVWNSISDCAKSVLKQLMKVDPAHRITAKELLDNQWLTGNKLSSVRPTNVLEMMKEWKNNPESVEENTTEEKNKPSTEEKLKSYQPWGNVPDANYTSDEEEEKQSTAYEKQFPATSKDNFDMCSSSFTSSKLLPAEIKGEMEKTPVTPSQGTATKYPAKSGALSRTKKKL

[43] = biological target: Serine/threonine-protein kinase D2 (Homo sapiens) (UniProt Q9BZL6)
[44] = biological target: Mitogen-activated protein kinase 6 (Homo sapiens) (UniProt Q16659)
[45] = biological target: Activin receptor type-1B (Homo sapiens) (UniProt P36896)

Chain of Tyrosine-protein kinase ABL1 (Homo sapiens) (P00519 whole entry): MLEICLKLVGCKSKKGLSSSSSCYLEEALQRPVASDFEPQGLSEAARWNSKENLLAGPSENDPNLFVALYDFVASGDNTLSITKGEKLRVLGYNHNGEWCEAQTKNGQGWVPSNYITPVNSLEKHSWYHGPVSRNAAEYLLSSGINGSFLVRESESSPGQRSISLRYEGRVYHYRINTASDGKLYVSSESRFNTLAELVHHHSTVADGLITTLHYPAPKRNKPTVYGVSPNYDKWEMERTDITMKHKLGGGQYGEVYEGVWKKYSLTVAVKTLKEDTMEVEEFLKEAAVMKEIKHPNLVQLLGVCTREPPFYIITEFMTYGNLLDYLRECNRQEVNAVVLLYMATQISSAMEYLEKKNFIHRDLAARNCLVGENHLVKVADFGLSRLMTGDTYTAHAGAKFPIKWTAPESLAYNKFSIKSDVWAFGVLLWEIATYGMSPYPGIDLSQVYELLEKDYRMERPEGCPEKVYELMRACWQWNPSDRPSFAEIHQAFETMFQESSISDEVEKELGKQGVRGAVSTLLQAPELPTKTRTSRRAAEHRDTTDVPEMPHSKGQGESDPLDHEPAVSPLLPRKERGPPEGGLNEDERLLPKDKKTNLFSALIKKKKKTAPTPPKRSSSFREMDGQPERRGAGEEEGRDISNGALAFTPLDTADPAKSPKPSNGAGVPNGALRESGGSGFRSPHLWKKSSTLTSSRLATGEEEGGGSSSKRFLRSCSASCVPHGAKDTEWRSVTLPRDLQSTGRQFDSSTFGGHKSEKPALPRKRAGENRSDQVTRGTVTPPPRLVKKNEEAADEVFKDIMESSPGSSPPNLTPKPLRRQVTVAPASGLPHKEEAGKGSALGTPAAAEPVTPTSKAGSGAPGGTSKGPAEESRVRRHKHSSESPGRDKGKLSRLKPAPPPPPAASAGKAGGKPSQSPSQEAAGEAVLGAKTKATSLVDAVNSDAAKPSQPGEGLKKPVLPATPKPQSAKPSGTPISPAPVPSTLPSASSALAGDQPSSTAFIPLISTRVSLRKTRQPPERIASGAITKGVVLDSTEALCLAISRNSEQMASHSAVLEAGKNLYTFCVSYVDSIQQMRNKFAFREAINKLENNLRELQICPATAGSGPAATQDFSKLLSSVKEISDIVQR
Chain of Tyrosine-protein kinase ABL1 (Homo sapiens), P00519 [E255K] (P00519 whole entry E255K): as the sequence (P00519 whole entry) above, with E255K counted along it

Structure (SMILES): c1ccc(N2CCN(Cc3nc4ccccc4[nH]3)CC2)nc1 [ABT-724]
- residual activity [1]: 100%
- residual activity [2]: 100%
- residual activity [3]: 100%
- residual activity [4]: 86%
- residual activity [5]: 100%
- residual activity [6]: 100%
- residual activity [7]: 94%
- residual activity [8]: 100%
- residual activity [9]: 100%
- residual activity [10]: 93%
- residual activity [11]: 84%
- residual activity [12]: 80%
- residual activity [13]: 87%
- residual activity [14]: 89%
- residual activity [15]: 100%
- residual activity [16]: 100%
- residual activity [17]: 100%
- residual activity [18]: 100%
- residual activity [19]: 100%
- residual activity [20]: 100%
- residual activity [21]: 100%
- residual activity [22]: 100%
- residual activity [23]: 100%
- residual activity [24]: 100%
- residual activity [25]: 100%
- residual activity [26]: 100%
- residual activity [27]: 100%
- residual activity [28]: 99%
- residual activity [29]: 100%
- residual activity [30]: 100%
- residual activity [31]: 100%
- residual activity [32]: 100%
- residual activity [33]: 100%
- residual activity [34]: 100%
- residual activity [35]: 100%
- residual activity [36]: 65%
- residual activity [37]: 100%
- residual activity [38]: 100%
- residual activity [39]: 100%
- residual activity [40]: 92%
- residual activity [41]: 95%
- residual activity [42]: 97%
- residual activity [43]: 91%
- residual activity [44]: 100%
- residual activity [45]: 85%

Structure (SMILES): CSc1cccnc1N1CCN(Cc2nc3ccccc3[nH]2)CC1 [A-769]
- residual activity [1]: 67%
- residual activity [2]: 78%
- residual activity [3]: 71%
- residual activity [4]: 100%
- residual activity [5]: 82%
- residual activity [6]: 100%
- residual activity [7]: 100%
- residual activity [8]: 81%
- residual activity [9]: 100%
- residual activity [10]: 100%
- residual activity [11]: 97%
- residual activity [12]: 94%
- residual activity [13]: 96%
- residual activity [14]: 100%
- residual activity [15]: 99%
- residual activity [16]: 100%
- residual activity [17]: 100%
- residual activity [18]: 65%
- residual activity [19]: 95%
- residual activity [20]: 81%
- residual activity [21]: 86%
- residual activity [22]: 100%
- residual activity [23]: 100%
- residual activity [24]: 100%
- residual activity [25]: 100%
- residual activity [26]: 100%
- residual activity [27]: 89%
- residual activity [28]: 78%
- residual activity [29]: 98%
- residual activity [30]: 100%
- residual activity [31]: 100%
- residual activity [32]: 100%
- residual activity [33]: 45%
- residual activity [34]: 95%
- residual activity [35]: 100%
- residual activity [36]: 100%
- residual activity [37]: 100%
- residual activity [38]: 100%
- residual activity [39]: 100%
- residual activity [40]: 100%
- residual activity [41]: 100%
- residual activity [42]: 91%
- residual activity [43]: 100%
- residual activity [44]: 100%
- residual activity [45]: 100%
